Data on 70 compounds can be found in PubChem BioAssay AID1117361 (Southern Research Institute, 2015).

By IC50 is commonly meant the point on the concentration scale where inhibition reaches its midpoint.

For the test, the target named is Protein Tat (Human immunodeficiency virus type 1 group M subtype B (isolate HXB2)) (UniProt P04608). Put plainly: inhibitors of Tat binding to TAR RNA, dose response, counter-screen for Vif-APOBEC3G degradation inhibitor project, biochemical, fluorescence polarization, FAM-labeled TAR RNA (AID 1117361). A general note: A counterscreen serves to expose hits that act by an unwanted route or on another target.
Sequence of Protein Tat (Human immunodeficiency virus type 1 group M subtype B (isolate HXB2)) (P04608 whole entry, looked up): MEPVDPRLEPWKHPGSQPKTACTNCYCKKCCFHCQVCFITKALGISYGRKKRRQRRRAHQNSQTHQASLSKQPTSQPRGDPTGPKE
Regarding `Cc1ccc(C)c(-n2c(Cc3cc(=O)[nH]c(=O)[nH]3)nnc2SC(C)C)c1`, the IC50 is 77 µM.
Under `O=[N+]([O-])c1ccc(-c2ccc(/C=N/c3c(-c4ccco4)nc4ccccn34)o2)cc1` stands 1.4 µM.
Regarding `COc1ccc(NC(=S)NCCc2ccccc2OC)c(OC)c1`, the IC50 was 13.7 µM.
For the compound `CCCc1cc(=O)oc2cc(C)c(CN3CCCC3)c(O)c12`, the IC50 is 16.9 µM.
Under `CN1CCN(C2=C(Cl)C(=O)c3ccccc3C2=O)CC1` stands 40 µM.
The value for `CC1(OC(=O)C2CCCC2)C(=O)C=C2C=C(c3ccsc3)OC=C2C1=O` (stereo not given) was 45.4 µM; that for `CCc1cc(=O)oc2cc(C)c(CN3CCCC3)c(O)c12` was 5.84 µM; that for `O=[N+]([O-])c1cc2ccccc2c(O)c1O` was 56.8 µM.
The value for `CCOC(=O)c1ccc2c(c1)C1C=CCC1C(C(=O)O)N2` (stereo not given) was 11 µM; that for `O=C(Nc1ccccc1)C1=C(O)CC(c2ccco2)CC1=Nc1ccccc1` (stereo not given) was 70.3 µM.
Regarding `O=C1Cc2cccc(=O)c(O)c2C(=O)O1`, the IC50 was 87.7 µM.
As to `CCN(CC)c1ccc(NC(=O)CCS(=O)(=O)c2ccc(Br)cc2)c(C)c1`, the IC50 was 46.5 µM.
For `CN(C)c1ccc2cc(S(=O)(=O)O)cc(O)c2c1`, the IC50 was 90 µM.
Turning to `COC(=O)/C(=N/Nc1ccccc1C)N1CCCc2ccccc21`, the IC50 was 29.2 µM.
Under `CCCNC1=C(C)C(=O)C2=C(C1=O)C(COC(N)=O)[C@]1(OC)C3NC3CN21` (stereo not given in full) stands 22.7 µM; under `O=C(NCc1ccccc1)c1ccc2nc(-c3ccco3)c(-c3ccco3)nc2c1`, 4.55 µM; under `NC(=O)/C(=C/c1ccco1)C(N)=S`, 12 µM.
Under `CCOC(=O)C1CCCN(C(=O)c2ccc(CNc3c(N4CCC(C)CC4)c(=O)c3=O)cc2)C1` (stereo not given) stands 65.3 µM; under `Cc1ccc(C=C2C(Cl)=C(Cl)C(Cl)=C2Cl)cc1`, 4.67 µM.
On to `CC(C)n1c(=NC(=O)c2ccco2)c(C#N)cc2c(=O)n3ccccc3cc21`, for which the IC50 is 95.9 µM.
Under `O=[n+]1c2c(n([O-])c3cc(F)c(F)cc31)CCCC2` stands 11.1 µM.
The value for `CC1C/C(=C/c2ccco2)C(=O)/C(=C/c2ccco2)C1` (stereo not given) was 3.92 µM; that for `CCCC(=Nc1ccc(N)cc1)C1=C(O)C(C(=O)OC)C(C)(C)CC1=O` (stereo not given) was 6.88 µM.
The value for `Cc1ccc2c(c1)C1C=CCC1C(C(=O)O)N2` (stereo not given) was 3.75 µM; that for `COCCn1nnnc1C(c1cc2cc(OC)c(OC)cc2[nH]c1=O)N1CCN(c2ccc(O)cc2)CC1` (stereo not given) was 94.3 µM.
Consider `O=C(O)C1Nc2c(C(=O)N3CCOCC3)cccc2C2C=CCC12` (stereo not given), for which the IC50 was 8.99 µM.
Take `Nc1cccc2cc(S(=O)(=O)O)ccc12`: the IC50 is 67.9 µM.
The value for `O=C1c2sc3nc4n(c(=O)c3c2CCC1Br)CCCCC4` (stereo not given) was 4.82 µM; that for `CCN1CCN(C2=NC(=O)/C(=C/c3ccc(C)o3)S2)CC1` was 1.47 µM; that for `CCOc1cc(N2CCOCC2)c(OCC)cc1NC(=O)CSc1ncn[nH]1` was 35.7 µM.
Under `O=C1C2C3CCCC3=C3CCCC3C2C(=O)N1c1ccccc1` (stereo not given) stands 8.28 µM; under `CCOc1cc(N2CCOCC2)c(OCC)cc1NS(=O)(=O)c1ccc(Cl)s1`, 14.9 µM; under `CC1=C(C(=O)Nc2ccccc2F)C(c2ccsc2)C2=C(CC(c3ccccc3)CC2=O)N1` (stereo not given), 4.06 µM.
Under `O=c1c(O)cccc2cc(O)c(O)c(O)c12` stands 3.96 µM.
As to `O=C(c1ccc2nc(-c3ccco3)c(-c3ccco3)nc2c1)N1CCC2(CC1)OCCO2`, the IC50 was 4.26 µM.
`COC(=O)CCC(=O)OC1(C)C(=O)C2=COC(c3ccc(OC)cc3)=CC2=C(Br)C1=O` (stereo not given): the IC50 was 13 µM.
With `O=[N+]([O-])c1cc(CN2CCOCC2)c2cccnc2c1O`, the IC50 was 15.8 µM.
The value for `Cc1ccc(/C=C/C(=O)Nc2ccc([N+](=O)[O-])c(NC(=O)/C=C/c3ccc(C)o3)c2)o1` was 7.2 µM; that for `O=C1CCCC(O)=C1N=Nc1ccc(S(=O)(=O)N2CCOCC2)cc1` was 37.6 µM; that for `Cc1cccn2c(=O)c3cc(C(=O)NCc4ccco4)c(=N)n(CCc4ccccc4)c3nc12` was 11.8 µM.
On to `O=S(=O)(O)c1cc(Cl)cc(N=Nc2ccc(O)cc2O)c1O`, for which the IC50 is 22.5 µM.
With `Cc1ccc2cc(CN(Cc3nnnn3Cc3ccco3)CC3CCCO3)c(=O)[nH]c2c1C` (stereo not given), the IC50 was 29.4 µM.
The value for `O/C=c1\ccc2cccc3nc(C(F)(F)F)nc1c23` was 2.92 µM; that for `CO[C@H]1C=CO[C@@]2(C)Oc3c(C)c(O)c4c(O)c(c(C=NN5CCN(C)CC5)c(O)c4c3C2=O)NC(=O)C(C)=CC=C[C@H](C)[C@H](O)[C@@H](C)[C@@H](O)[C@@H](C)[C@H](OC(C)=O)[C@@H]1C` was 11.2 µM.
Under `COc1cccc(-c2cn3nc4c(nc3n2)CCCC4)c1` stands 100 µM; under `CN1CCN(C2=C(Cl)C(=O)C(c3cnc(N4CCCCC4)s3)=C(Cl)C2=O)CC1`, 6.71 µM; under `Nc1ccc(Nc2ccccc2)c(S(=O)(=O)O)c1`, 31.4 µM.
The value for `COc1cccc(NC(=O)CSc2nnc(-c3ccco3)c(-c3ccco3)n2)c1` was 69.3 µM; that for `c1coc(-c2nc(-c3ccco3)c(-c3ccco3)nc2-c2ccco2)c1` was 2.19 µM.
For `COC(=O)CCC(=O)OC1(C)C(=O)C2=CN(CCCOC(C)C)C(c3ccc(OC)cc3)=CC2=C(Br)C1=O` (stereo not given), the IC50 was 19.1 µM.
`Cn1c(O)c(/C=N/NC(=O)c2ccncc2)c(=O)[nH]c1=S`: the IC50 is 51.8 µM.
The value for `CN(C)c1ccc(Cc2cc3c(O)ccc(O)c3cc(Cc3ccc(N(C)C)cc3)c2=O)cc1` was 85.4 µM.
For `Clc1ccccc1N=Nc1ccccn1`, the IC50 is 35 µM.
The value for `COc1cc2c(cc1N)-c1ccc(N)cc1C2` was 2.51 µM; that for `CNc1ccc(Br)cc(C(=O)/C=C/c2ccc(OC)cc2)c1=O` was 9.15 µM; that for `Cc1ncc(CO)c(/C=N/NC(=O)c2cc(O)c(O)c(O)c2)c1O` was 32.1 µM.
For `COC(=O)C1=C(C)NC(=O)/C1=C\c1ccco1`, the IC50 was 39.7 µM.
Under `O=C(COC(=O)c1ccc(NS(=O)(=O)c2cccs2)cc1)NCc1ccco1` stands 16.4 µM; under `Nc1c(C(=O)NC2CC2)sc2nc3c(c(-c4ccco4)c12)CC/C3=C/c1ccco1`, 0.937 µM; under `CC1CCCCC1NC(=O)COC(=O)c1c2c(nc3ccccc13)/C(=C/c1ccco1)CC2` (stereo not given), 7.58 µM.
Under `CCN(CC(=O)Nc1c(F)cccc1F)C(=O)CSC(=S)N1CCCC1` stands 75.6 µM; under `Cc1cc(C)cc(NC(=O)CSc2nc3c(c(=O)n2C)SC(C)C3)c1` (stereo not given), 56.9 µM; under `O=C1CC(=O)N(Cc2ccco2)C(=O)N1`, 14.6 µM.
The value for `Oc1ccc2c(c1)C1CCCC1(N1CCOCC1)O2` (stereo not given) was 23.1 µM.
As to `COc1cc(NCCCCCCN)c2ncccc2c1OC`, the IC50 is 56.7 µM.
For `Cc1nn(-c2ccccc2)c2sc(C(=O)N3CCc4ccccc4C3)cc12`, the half-inhibitory concentration (IC50) is 40.1 µM.
Under `COc1cc(C(=O)NCC(c2ccco2)N2CCCC2)ccc1OCc1c(C)noc1C` (stereo not given) stands 93.5 µM.
As to `O=c1oc2c(O)c(O)cc3c(=O)oc4c(O)c(O)cc1c4c23`, the IC50 was 1.67 µM.
The value for `Cc1cc(/C=N/Nc2ccc([N+](=O)[O-])cn2)c(C)n1-c1ccc(C(=O)O)cc1` was 5.58 µM; that for `Cc1ccc(N2C(=O)/C(=C\c3ccco3)SC2=S)cc1` was 36 µM.
